Measured values published in PMC11017401, “Novel molecular mechanism driving neuroprotection after soluble epoxide hydrolase inhibition: Insights for Alzheimer's disease therapeutics” (CNS Neuroscience & Therapeutics, 2023).
Entries after “also recorded” stand apart in the source; their conditions may differ. Marks after values point to notes of the source that are not given here.

What was measured:
Human primary astrocytes = test: T/I/C-induced reactive astrocyte conversion (qPCR, western blot); assay type: cell-based
Description: A total quantity of 1 × 10^6 astrocytes isolated from CD1 mouse brain (ScienCell #M1800) or primary human astrocyte (ScienCell #1800) were seeded onto PLL‐coated 6‐well culture plates in astrocyte medium (ScienCell #1831 or #1801).
Astrocytes cultures were incubated in serum‐free condition for 24 h and pretreated for 30 min with UB‐SCG‐51 or p‐eIF2α signal inhibitor (Sigma, SML0843), followed by recombinant T/I/C: IL‐1α (3 ng/mL, Peprotech, Thermo Fisher), TNF‐α (30 ng/mL, R&D), C1q (400 ng/mL, R&D), or PBS for 24 h.
Microglia or astrocyte proteins were extracted by RIPA buffer (Thermo Fisher Scientific Inc.). Extracted proteins were separated by SDS/PAGE and subsequently transferred to nitrocellulose membranes (Bio‐Rad). Membranes were blocked in 3% BSA for 1 h at RT and incubated with primary antibodies (details in resource and reagent Table) overnight at 4°C, followed by incubation with Highly Cross‐Adsorbed Secondary Antibody, Alexa Fluor Plus 800 or 680 (Life Technologies) for 1 h at RT. Membranes visualized on Odyssey (LI‐COR Biosciences).
Microglia or astrocyte total RNAs were isolated by using a Quick‐RNA kit (Zymo Research, Inc.). The concentration of total RNAs was measured using a UV–Vis spectrophotometer (NanoDrop8000, Thermo Fisher Scientific Inc.) and reverse‐transcribed with a high‐capacity cDNA reverse transcription kit (Applied Biosystems). Gene expression was quantified by Fast SYBR green real‐time PCR on a Quantstudio 5 system (Applied Biosystems). Data were analyzed according to the comparative Ct method. Gapdh was used to normalize the amounts of cDNA within each sample.

[1] = tested on: PTZ-induced seizures in mice; test: Pentylenetetrazol (PTZ) seizure test
Description: Then, a standard acute test involving the administration of pro‐convulsant PTZ was employed.[32], [33] Furthermore, the PTZ assay is considered highly translatable from mice to humans. In the test, PTZ was administered at 85 mg/Kg by the subcutaneous route and the time to onset of first clonic seizure, an average of clonic seizures, tonic seizure latency and lethality were monitored for 30 min.

[2] = 5 mg/Kg by gavage 1 h prior to PTZ 85 mg/Kg s.c.

| SMILES | C3 gene expression levels in co-treatment (Human primary astrocytes; T/I/C-activated astrocytes, SML0843 + UB-SCG-51, T/I/C alone about 10x control) [x fold] | C3 gene expression in T/I/C-activated astrocytes, single treatment (Human primary astrocytes; human primary astrocytes, T/I/C 24 h) | effect of co-treatment with p-eIF2α signal inhibitor (SML0843) on the UB-SCG-51 effect on C3 gene expression (Human primary astrocytes; human primary astrocytes, T/I/C, SML0843 + UB-SCG-51) | onset of tonic seizures induced by PTZ vs vehicle ([1]; 5 mg/Kg by gavage) | Average clonic seizure (SEM) [1, 2] | Protected from tonic/total (Mortality) [1, 2] | Mean time to clonic seizure latency in seconds (SEM) ([1]; 5 mg/Kg by gavage 1 h prior to PTZ 85 mg/Kg s.c., monitored 30 min) | average seizure score ([1]; 5 mg/Kg by gavage, group comparison) |
| --- | --- | --- | --- | --- | --- | --- | --- | --- |
| O=C(COc1ccc(Cl)cc1)NC1CCC(NC(=O)COc2ccc(Cl)cc2)CC1 (centres unmarked) [SML0843] | 2 | did not modify; also recorded: did not affect | partially block |  |  |  |  |  |
| CCC(=O)N1CCC(NC(=O)Nc2ccc(OC(F)(F)F)cc2)CC1 [TPPU] |  |  |  | delay the onset of tonic seizures | 3.67 (0.56)** | 5/6^**** | 605.33 (144.78) seconds | significant reduction |
